In brackets after ≈: the same amount, converted by molar mass.
Columns and labels:
Format in all cases: cell-based
E. faecalis = assay: MIC values, E. faecalis (Tables 1-4)
H. flu = tested on: H. flu
S. aureus = assay: MIC values, S. aureus (Tables 1-4)
E. coli = assay: MIC values, E. coli (Tables 1-4)
S. pneumo. = assay: MIC values, S. pneumo. (Tables 1-4)

In the case of CCCC(=O)NC1CCN(c2cc(O)c3nc4c5c6c7c(C)c(O)c5c(=O)c(c-4oc3c2)NC(=O)/C(C)=C\C=C\[C@H](C)[C@H](O)[C@@H](C)[C@@H](O)[C@@H](C)[C@H](O)[C@H](C)[C@@H](OC)/C=C/O[C@@](C)(O7)C6=O)CC1 [Compound 36], the “MIC E. faecalis” value (E. faecalis) is reported as 2000 ng/mL (≈ 2160 nM), the “MIC H. flu” value (H. flu) is reported as 250 ng/mL (≈ 270 nM) and the “MIC S. aureus” value (S. aureus) is reported as 4 ng/mL (≈ 4.31 nM). For the same compound, the “MIC E. coli” value (E. coli) was greater than 8000 ng/mL and the “MIC S. pneumo.” value (S. pneumo.) was 0.03 ng/mL (≈ 0.0324 nM).

With CO[C@H]1/C=C/O[C@@]2(C)Oc3c(C)c(O)c4c(=O)c(c5oc6cc(N7CCC(N(C)C)CC7)cc(O)c6nc-5c4c3C2=O)NC(=O)/C(C)=C\C=C\[C@H](C)[C@H](O)[C@@H](C)[C@@H](O)[C@@H](C)[C@H](OC(C)=O)[C@@H]1C [Compound 17] the “MIC E. faecalis” value (E. faecalis) was 1000 ng/mL (≈ 1080 nM), the “MIC H. flu” value (H. flu) was 1000 ng/mL (≈ 1080 nM) and the “MIC S. aureus” value (S. aureus) was 8 ng/mL (≈ 8.63 nM). The “MIC E. coli” value (E. coli) was 8000 ng/mL (≈ 8630 nM) and the “MIC S. pneumo.” value (S. pneumo.) was 0.12 ng/mL (≈ 0.129 nM).

With CCCS(=O)(=O)NC1CCN(c2cc(O)c3nc4c5c6c7c(C)c(O)c5c(=O)c(c-4oc3c2)NC(=O)/C(C)=C\C=C\[C@H](C)[C@H](O)[C@@H](C)[C@@H](O)[C@@H](C)[C@H](O)[C@H](C)[C@@H](OC)/C=C/O[C@@](C)(O7)C6=O)CC1 [Compound 67] the “MIC E. faecalis” value (E. faecalis) was 500 ng/mL (≈ 519 nM), the “MIC H. flu” value (H. flu) was 120 ng/mL (≈ 125 nM) and the “MIC S. aureus” value (S. aureus) was 8 ng/mL (≈ 8.31 nM). For the same compound, the “MIC E. coli” value (E. coli) was greater than 8000 ng/mL and the “MIC S. pneumo.” value (S. pneumo.) was 1 ng/mL (≈ 1.04 nM).

CCNC(=O)NC1CCN(c2cc(O)c3nc4c5c6c7c(C)c(O)c5c(=O)c(c-4oc3c2)NC(=O)/C(C)=C\C=C\[C@H](C)[C@H](O)[C@@H](C)[C@@H](O)[C@@H](C)[C@H](OC(C)=O)[C@H](C)[C@@H](OC)/C=C/O[C@@](C)(O7)C6=O)CC1 [Compound 34] was tested, and the “MIC E. faecalis” value (E. faecalis) was 2000 ng/mL (≈ 2060 nM), the “MIC H. flu” value (H. flu) was 500 ng/mL (≈ 515 nM) and the “MIC S. aureus” value (S. aureus) was 30 ng/mL (≈ 30.9 nM). The “MIC E. coli” value (E. coli) was 8000 ng/mL (≈ 8250 nM) and the “MIC S. pneumo.” value (S. pneumo.) was 1 ng/mL (≈ 1.03 nM).

In the case of CO[C@H]1/C=C/O[C@@]2(C)Oc3c(C)c(O)c4c(=O)c(c5oc6cc(N7CC8CCC(C7)N8)cc(O)c6nc-5c4c3C2=O)NC(=O)/C(C)=C\C=C\[C@H](C)[C@H](O)[C@@H](C)[C@@H](O)[C@@H](C)[C@H](OC(C)=O)[C@@H]1C [Compound 145], the “MIC E. faecalis” value (E. faecalis) is reported as 1000 ng/mL (≈ 1100 nM), the “MIC H. flu” value (H. flu) is reported as 2000 ng/mL (≈ 2200 nM) and the “MIC S. aureus” value (S. aureus) is reported as 8 ng/mL (≈ 8.78 nM). The “MIC E. coli” value (E. coli) was greater than 8000 ng/mL and the “MIC S. pneumo.” value (S. pneumo.) was 0.12 ng/mL (≈ 0.132 nM).

In the case of COC1C=COC2(C)Oc3c(C)c(O)c4c(=O)c(c5oc6cc(N7CC8CCCN(C(C)=O)C8C7)cc(O)c6nc-5c4c3C2=O)NC(=O)C(C)=CC=CC(C)C(O)C(C)C(O)C(C)C(OC(C)=O)C1C (centres unmarked) [Compound 149], the “MIC E. faecalis” value (E. faecalis) is reported as 1000 ng/mL (≈ 1030 nM), the “MIC H. flu” value (H. flu) is reported as 250 ng/mL (≈ 259 nM) and the “MIC S. aureus” value (S. aureus) is reported as 8 ng/mL (≈ 8.27 nM). For the same compound, the “MIC E. coli” value (E. coli) was greater than 8000 ng/mL and the “MIC S. pneumo.” value (S. pneumo.) was 2 ng/mL (≈ 2.07 nM).

CO[C@H]1/C=C/O[C@@]2(C)Oc3c(C)c(O)c4c(=O)c(c5oc6cc(N7CCC(N)CC7)cc(O)c6nc-5c4c3C2=O)NC(=O)/C(C)=C\C=C\[C@H](C)[C@H](O)[C@@H](C)[C@@H](O)[C@@H](C)[C@H](OC(C)=O)[C@@H]1C [Compound 33] was tested, and the “MIC E. faecalis” value (E. faecalis) was 1000 ng/mL (≈ 1110 nM), the “MIC H. flu” value (H. flu) was 1000 ng/mL (≈ 1110 nM) and the “MIC S. aureus” value (S. aureus) was 8 ng/mL (≈ 8.9 nM). The “MIC E. coli” value (E. coli) was greater than 8000 ng/mL and the “MIC S. pneumo.” value (S. pneumo.) was 0.06 ng/mL (≈ 0.0667 nM).

For CO[C@H]1/C=C/O[C@@]2(C)Oc3c(C)c(O)c4c(=O)c(c5oc6cc(N7CCN(CCO)CC7)cc(O)c6nc-5c4c3C2=O)NC(=O)/C(C)=C\C=C\[C@H](C)[C@H](O)[C@@H](C)[C@@H](O)[C@@H](C)[C@H](O)[C@@H]1C [Compound 101], the “MIC E. faecalis” value (E. faecalis) was 120 ng/mL (≈ 135 nM), the “MIC H. flu” value (H. flu) was 250 ng/mL (≈ 282 nM) and the “MIC S. aureus” value (S. aureus) was 8 ng/mL (≈ 9.02 nM). For the same compound, the “MIC E. coli” value (E. coli) was 8000 ng/mL (≈ 9020 nM) and the “MIC S. pneumo.” value (S. pneumo.) was 0.5 ng/mL (≈ 0.564 nM).

In the case of CCCS(=O)(=O)NC1CCN(c2cc(O)c3nc4c5c6c7c(C)c(O)c5c(=O)c(c-4oc3c2)NC(=O)/C(C)=C\C=C\[C@H](C)[C@H](O)[C@@H](C)[C@@H](O)[C@@H](C)[C@H](OC(C)=O)[C@H](C)[C@@H](OC)/C=C/O[C@@](C)(O7)C6=O)CC1 [Compound 35], the “MIC E. faecalis” value (E. faecalis) is reported as 4000 ng/mL (≈ 3980 nM), the “MIC H. flu” value (H. flu) is reported as 500 ng/mL (≈ 497 nM) and the “MIC S. aureus” value (S. aureus) is reported as 15 ng/mL (≈ 14.9 nM). The “MIC E. coli” value (E. coli) was 8000 ng/mL (≈ 7960 nM) and the “MIC S. pneumo.” value (S. pneumo.) was 0.25 ng/mL (≈ 0.249 nM).

For COC1C=COC2(C)Oc3c(C)c(O)c4c(=O)c(c5sc6cc(N7CC(C)N(CC8CC8)CC7C)ccc6nc-5c4c3C2=O)NC(=O)C(C)=CC=CC(C)C(O)C(C)C(O)C(C)C(OC(C)=O)C1C (centres unmarked) [Compound 68], the “MIC E. faecalis” value (E. faecalis) was 2000 ng/mL (≈ 2070 nM), the “MIC H. flu” value (H. flu) was 500 ng/mL (≈ 517 nM) and the “MIC S. aureus” value (S. aureus) was 60 ng/mL (≈ 62 nM). The “MIC E. coli” value (E. coli) was greater than 8000 ng/mL and the “MIC S. pneumo.” value (S. pneumo.) was 0.5 ng/mL (≈ 0.517 nM).

COC1C=COC2(C)Oc3c(C)c(O)c4c(=O)c(c5oc6cc(N7CC8CCCNC8C7)cc(O)c6nc-5c4c3C2=O)NC(=O)C(C)=CC=CC(C)C(O)C(C)C(O)C(C)C(O)C1C (centres unmarked) [Compound 7] was tested, and the “MIC E. faecalis” value (E. faecalis) was 4000 ng/mL (≈ 4530 nM), the “MIC H. flu” value (H. flu) was 4000 ng/mL (≈ 4530 nM) and the “MIC S. aureus” value (S. aureus) was 120 ng/mL (≈ 136 nM). The “MIC E. coli” value (E. coli) was greater than 8000 ng/mL and the “MIC S. pneumo.” value (S. pneumo.) was 4 ng/mL (≈ 4.53 nM).

With CCc1cc2nc3c4c5c6c(C)c(O)c4c(=O)c(c-3oc2cc1N1CCCCC1)NC(=O)/C(C)=C\C=C\[C@H](C)[C@H](O)[C@@H](C)[C@@H](O)[C@@H](C)[C@H](O)[C@H](C)[C@@H](OC)/C=C/O[C@@](C)(O6)C5=O [Compound 111] the “MIC E. faecalis” value (E. faecalis) was 4000 ng/mL (≈ 4680 nM), the “MIC H. flu” value (H. flu) was 2000 ng/mL (≈ 2340 nM) and the “MIC S. aureus” value (S. aureus) was 1000 ng/mL (≈ 1170 nM). For the same compound, the “MIC E. coli” value (E. coli) was 1000 ng/mL (≈ 1170 nM) and the “MIC S. pneumo.” value (S. pneumo.) was 120 ng/mL (≈ 141 nM).

In the case of CO[C@H]1/C=C/O[C@@]2(C)Oc3c(C)c(O)c4c(=O)c(c5oc6cc(N7CCC(NC(C)=O)CC7)cc(O)c6nc-5c4c3C2=O)NC(=O)/C(C)=C\C=C\[C@H](C)[C@H](O)[C@@H](C)[C@@H](O)[C@@H](C)[C@H](OC(C)=O)[C@@H]1C [Compound 44], the “MIC E. faecalis” value (E. faecalis) is reported as 2000 ng/mL (≈ 2130 nM), the “MIC H. flu” value (H. flu) is reported as 250 ng/mL (≈ 266 nM) and the “MIC S. aureus” value (S. aureus) is reported as 60 ng/mL (≈ 63.8 nM). For the same compound, the “MIC E. coli” value (E. coli) was greater than 8000 ng/mL and the “MIC S. pneumo.” value (S. pneumo.) was 8 ng/mL (≈ 8.5 nM).

With CO[C@H]1/C=C/O[C@@]2(C)Oc3c(C)c(O)c4c(=O)c(c5oc6cc(N7CCNCC7)cc(O)c6nc-5c4c3C2=O)NC(=O)/C(C)=C\C=C\[C@H](C)[C@H](O)[C@@H](C)[C@@H](O)[C@@H](C)[C@H](O)[C@@H]1C [Compound 107] the “MIC E. faecalis” value (E. faecalis) was 60 ng/mL (≈ 71.2 nM), the “MIC H. flu” value (H. flu) was 120 ng/mL (≈ 142 nM) and the “MIC S. aureus” value (S. aureus) was 8 ng/mL (≈ 9.49 nM). The “MIC E. coli” value (E. coli) was 4000 ng/mL (≈ 4750 nM) and the “MIC S. pneumo.” value (S. pneumo.) was 2 ng/mL (≈ 2.37 nM).

With CC[C@@H]1CN(c2cc(O)c3nc4c5c6c7c(C)c(O)c5c(=O)c(c-4oc3c2)NC(=O)/C(C)=C\C=C\[C@H](C)[C@H](O)[C@@H](C)[C@@H](O)[C@@H](C)[C@H](O)[C@H](C)[C@@H](OC)/C=C/O[C@@](C)(O7)C6=O)C[C@H](CC)N1 [Compound 91] the “MIC E. faecalis” value (E. faecalis) was 120 ng/mL (≈ 133 nM), the “MIC H. flu” value (H. flu) was 250 ng/mL (≈ 278 nM) and the “MIC S. aureus” value (S. aureus) was 30 ng/mL (≈ 33.4 nM). The “MIC E. coli” value (E. coli) was 4000 ng/mL (≈ 4450 nM) and the “MIC S. pneumo.” value (S. pneumo.) was 0.5 ng/mL (≈ 0.556 nM).

CO[C@H]1/C=C/O[C@@]2(C)Oc3c(C)c(O)c4c(=O)c(c5oc6cc(N7CCN(c8ncccn8)CC7)cc(O)c6nc-5c4c3C2=O)NC(=O)/C(C)=C\C=C\[C@H](C)[C@H](O)[C@@H](C)[C@@H](O)[C@@H](C)[C@H](O)[C@@H]1C [Compound 106] was tested, and the “MIC E. faecalis” value (E. faecalis) was 250 ng/mL (≈ 271 nM), the “MIC H. flu” value (H. flu) was 120 ng/mL (≈ 130 nM) and the “MIC S. aureus” value (S. aureus) was 4 ng/mL (≈ 4.34 nM). The “MIC E. coli” value (E. coli) was greater than 8000 ng/mL and the “MIC S. pneumo.” value (S. pneumo.) was 0.5 ng/mL (≈ 0.543 nM).

Reference: patent US20070142392A1, “Uses of rifamycins” (ActivBiotics, Inc., priority 2005, published 2007)
